One data set concerns Uterine bleeding. The data set can be described thus: Comparison study in monkey, IUS vehicle vs LNG vs NP, uterine bleeding. The class given is in vivo, cynomolgus macaques. As to conditions: for number of bleeding days: first 7 days after insertion neglected. As to the method: Animal Treatments: Adult cycling cynomolgus macaques were monitored to record regular menstrual cycles. Uterine bleeding was assessed daily by vaginal swabs (for sporadic vaginal spotting) and menstrual blood loss by vaginal tampons. After 2 menstrual cycles (˜60 days), the animals were assigned to treatment groups and laparotomized between days 6-8 (ideally day 7) of the follicular phase and an IUS was inserted by hysterotomy into the uterine lumen and sutured in place. Treatment IUS was as follows (n=5-6/group): • Group 1: Vehicle IUS • Group 2: 2 μg/day LNG • Group 3: 5 μg/day LNG • Group 4: 2 μg/day NP • Group 5: 5 μg/day NP Classification of bleeddings: Bleedings were grouped in three categories: a) positive swap or frank menses, which is the most heavy form of bleeding (BB, red colour), b) light positive swab, which is an intermediated type of bleeding (B, purple colour) and c) spot positive swab, which is a very light form of bleeding (S, orange colour). For evaluation of bleeding days, the first 7 days after insertion of the IUS were neglected, because the surgical insertion procedure already causes some bleedings in these days, which is unrelated progestin effects. FIGS. 2 and 3 and Tables 1 and 2 illustrate a comparison of 2 μg/d LNG release with 5 μg/d LNG release for 80 days with the IUS for each animal.

The test system of a further data set is uterine horn. The data set can be described thus: Weight gain of IUS-carrying uterine horn in ovary-resected rats. The data set is classed as in vivo. As to conditions: E2 treated, IUS (rod) in right uterine horn. Here is the method: The local uterine action of the a.m. progestin compared to systemic side effects (dissociation) was investigated on the basis of studies using rats (see Example 4; FIGS. 4 to 6). The uterus of ovary-resected rats responded to implantation of progestin-containing IUS (rods) with decidualization and weight gain. The local progestin effects were also determined on the basis of changes in gene expression. […] The left uterine horn remained untreated for internal comparison.

The subject of a further data set is IGFBP-1, Cyp26a1. As to the kind of experiment: Gene expression analysis of uterine tissue after IUS (rods) in rats. The data set is classed as in vivo. As to conditions: local administration by IUS (rods) in rats, identical release rates. Here is the method:
The left uterine horn remained untreated for internal comparison.
The uterine tissue was homogenized in 800 μl of RLT lysis buffer (Qiagen, Hilden, Germany; #79216) using a Precellys24 homogenizer (Peqlab, Erlangen, Germany; 2.8 mm ceramic beads; #91-PCS-CK28, 2×6000 rpm). 400 μl of the homogenate obtained were used for isolating total RNA, using the QlAsymphony RNA kit (Qiagen, #931636) on a QlAsymphony SP robot for automated sample preparation. Reverse transcription of from 1 μg to 4 μg of total RNA was carried out using the SuperScript III first-strand synthesis system (Invitrogen, Carlsbad, USA; #18080-051) according to the random hexamer procedure.
Gene expression analysis was carried out with from 50 ng to 200 ng of cDNA per reaction on an SDS7900HT Real.time PCR system (Applied Biosystems, Carlsbad, USA) using TaqMan probes (Applied Biosystems; IGFBP-1 Rn00565713_m1, Cyp26a1 Rn00590308_m1, PPIA Rn00690933_m1) and the Fast Blue qPCR MasterMix Plus (Eurogentec, Liege, Belgium; #RT-QP2X-03+FB). For relative quantification, cyclophilin A (PPIA) was used as an endogenous control. Relative expression levels were calculated according to the comparative delta delta CT method.

Data set [1] in a line: Progestational activity compared to LNG.
For data set [2] the following is noted: in vivo.
The mark [3] stands for this setting: release rate 2 μg/d, total of 6 test animals.
The mark [4] stands for this setting: release rate 5 μg/d, total of group (LNG: 5 test animals).

As for `CC[C@]12CC[C@H]3[C@@H](CCC4=CC(=O)CC[C@@H]43)[C@@H]1[C@@H]1C[C@@H]1[C@@]21CCCO1` [compound A, 18-methyl-15β,16β-methylene-19-nor-20-spirox-4-en-3-one], in the data set with Uterine bleeding (2 μg/d NP versus 2 μg/d LNG), the “bleeding reduction compared to LNG” value is “higher bleeding reduction”. Besides, the “bleeding compared to vehicle IUS group” value in the data set on Uterine bleeding (2 μg/d release group) and with Uterine bleeding (5 μg/d release group) was “marked reduction of bleeding” in each case. The “number of bleeding days” value in the data set on Uterine bleeding (setting [3]) is given as 4 days; in the data set on Uterine bleeding (setting [4]), “No bleeding”. The “local efficacy by way of weight gain in the IUS-carrying uterine horn” value with uterine horn is “dose-dependent local efficacy”. For the same molecule, the “potency in inducing gene expression relative to levonorgestrel” value in the data set with IGFBP-1, Cyp26a1 was 4- to 7 fold. Further, the “progestional activity compared to LNG” value in data set [1] is on record as “higher progestional activity”. Further, in data set [2], the break-down rate entry is listed as “very fast break-down rate”. Further, the “systemic stability / plasma clearance compared to LNG” value in data set [2] is recorded as “low systemic stability/higher plasma clearance”.
For the molecule `CC[C@]12CCC3C4CCC(=O)C=C4C4CC4C3C1[C@@H]1C[C@@H]1[C@@]21CCCO1` (stereo partly drawn) [compound B, 18-methyl-6α,7α,15β,16β-dimethylene-19-nor-20-spirox-4-en-3-one], the “local efficacy by way of weight gain in the IUS-carrying uterine horn” value with uterine horn is given as “dose-dependent local efficacy”. Further, the break-down rate entry in data set [2] is on record as “very fast break-down rate”.
As to `C#C[C@]1(O)CC[C@H]2[C@@H]3CCC4=CC(=O)CC[C@@H]4[C@H]3CC[C@@]21CC` [LNG, levonorgestrel, reference compound], the figures for the “number of bleeding days” value in the data set with Uterine bleeding (setting [3]) and in the data set with Uterine bleeding (setting [4]) were 24 days and 4 days, respectively.

(Values after patent US20160262923A1, “INTRAUTERINE DELIVERY SYSTEM” (BAYER OY, priority 2013, published 2016).)
